This is an account of results in ChEMBL document CHEMBL2346511, “Advances in the discovery of kinesin spindle protein (Eg5) inhibitors as antitumor agents” (Eur J Med Chem, 2013).

The target in data set [1] is T1, Kinesin-like protein KIF11 (Homo sapiens, UniProt P52732).
T1 sequence (P52732 whole entry): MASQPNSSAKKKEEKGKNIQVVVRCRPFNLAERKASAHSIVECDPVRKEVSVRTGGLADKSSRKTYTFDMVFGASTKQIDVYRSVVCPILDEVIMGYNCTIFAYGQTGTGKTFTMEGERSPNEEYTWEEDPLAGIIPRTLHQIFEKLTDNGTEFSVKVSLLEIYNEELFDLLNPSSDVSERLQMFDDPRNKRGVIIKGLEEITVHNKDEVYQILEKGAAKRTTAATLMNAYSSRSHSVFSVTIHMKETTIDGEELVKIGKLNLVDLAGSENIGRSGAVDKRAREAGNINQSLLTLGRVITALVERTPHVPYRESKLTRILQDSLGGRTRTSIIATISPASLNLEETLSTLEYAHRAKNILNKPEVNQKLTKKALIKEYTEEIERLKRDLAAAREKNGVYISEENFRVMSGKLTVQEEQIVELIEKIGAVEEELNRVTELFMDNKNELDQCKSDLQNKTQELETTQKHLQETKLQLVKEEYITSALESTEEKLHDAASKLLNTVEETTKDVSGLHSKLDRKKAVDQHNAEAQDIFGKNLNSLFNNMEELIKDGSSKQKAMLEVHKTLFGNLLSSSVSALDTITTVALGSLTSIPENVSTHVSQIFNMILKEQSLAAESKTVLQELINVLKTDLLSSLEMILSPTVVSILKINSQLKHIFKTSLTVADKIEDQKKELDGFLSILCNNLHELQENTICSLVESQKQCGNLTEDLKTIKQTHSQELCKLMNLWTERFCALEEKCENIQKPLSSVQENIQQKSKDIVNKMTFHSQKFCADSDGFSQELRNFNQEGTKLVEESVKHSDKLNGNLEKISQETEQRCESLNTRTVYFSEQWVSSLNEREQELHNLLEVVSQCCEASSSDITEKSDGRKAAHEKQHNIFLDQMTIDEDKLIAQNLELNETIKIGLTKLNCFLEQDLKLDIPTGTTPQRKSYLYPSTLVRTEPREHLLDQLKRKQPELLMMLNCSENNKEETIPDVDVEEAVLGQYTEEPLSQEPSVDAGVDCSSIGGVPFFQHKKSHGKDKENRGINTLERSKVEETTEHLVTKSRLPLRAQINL
In words: Inhibition of human recombinant Eg5 ATPase activity expressed in Escherichia coli after 30 mins by malachite green-based spectrophotometric analysis.

The target of data set [2] is T1, Kinesin-like protein KIF11. Kind of data set: Inhibition of Eg5 in human HCT116 cells assessed as inhibition of microtubule-induced ATPase activity after 18 hrs. The data set is classed as cell-based, HCT-116.
The target in data set [3] is T1, Kinesin-like protein KIF11. Kind of data set: Inhibition of Eg5 (unknown origin).
Data set [4] deals with T1, Kinesin-like protein KIF11. In words: Inhibition of human Eg5 basal ATPase activity.
The target in data set [5] is T1, Kinesin-like protein KIF11. In words: Inhibition of human Eg5 assessed as inhibition of microtubule-induced ATPase activity.
Data set [6] deals with Homo sapiens. Kind of data set: Toxicity in cancer patient administered as infusion for 1 hr every 21 days. The data set is classed as organism-based. To be noted: in vivo, iv.
The target of data set [7] is T2, Kinesin-like protein KIF11 (Homo sapiens) (UniProt P52732).
T2 sequence (whole entry): T1 sequence (P52732 whole entry)
In words: Ratio of monastrol IC50 to compound IC50 for Eg5 (unknown origin).

Data set [8] can be described thus: Antiproliferative activity against human NCI60 cells.
Data set [9] deals with Homo sapiens. In words: Toxicity in iv dosed cancer patient administered as infusion for 1 hr on days 1, 8 and 15 measured after 28 days. It is filed as organism-based. To be noted: in vivo, 672 h.
Data set [10] has as its system Homo sapiens. In words: Toxicity in acute myeloid leukemia patient administered as infusion for 1 hr on 3 consecutive days measured after 2 weeks. It is filed as organism-based. To be noted: in vivo, iv, 336 h.
Data set [11] can be described thus: Half life in cancer patient at 30 mg, iv administered as infusion for 1 hr on days 1, 8 and 15 measured after 28 days. The note with it: human, in vivo.
The next data set can be described thus: clinical. The note with it: human, in vivo, iv, 16 mg/day.
A short description of data set [12]: Antitumor activity against breast cancer in patients at 12 mg/m2 administered as 1 hr infusion on day 1 and 15 measured after 28 days. It is filed as functional, Homo sapiens, Breast cancer cell.
The subject of data set [13] is Homo sapiens. In words: Toxicity in prostate cancer patient administered once every 3 weeks. The data set is classed as organism-based, Prostate gland. To be noted: in vivo, 504 h.
Data set [14] in a line: Half life in solid tumor patient at 7 mg/m2 administered as infusion for 1 hr per week for 3 weeks. The note with it: human, in vivo, iv. The data set is classed as ADME, organism-based.
The subject of data set [15] is Homo sapiens. In words: Toxicity in breast cancer patient administered as infusion for 1 hr on day 1 and 15 measured after 28 days. The data set is classed as organism-based. The note with it: in vivo, iv, 672 h.
The target of data set [16] is T1, Kinesin-like protein KIF11. In words: Inhibition of Eg5 assessed as inhibition of microtubule-induced ATPase activity (unknown origin).
The target of data set [17] is T1, Kinesin-like protein KIF11. In words: Inhibition of Eg5 basal ATPase activity (unknown origin).
For data set [18], the target named is T1, Kinesin-like protein KIF11. In words: Inhibition of human His-tagged Eg5 (1 to 368 amino acid residues) basal ATPase activity.

Description for clinical: Half life in acute myeloid leukemia patient at 16 mg/day administered as infusion for 1 hr on 3 consecutive days measured after 2 weeks

The term IC50 denotes the concentration at which inhibition is half-maximal. For the compound `Cc1cc2c(C(C)C)c(O)c(O)c(C=O)c2c(O)c1-c1c(C)cc2c(C(C)C)c(O)c(O)c(C=O)c2c1O` [GOSSYPOL], the IC50 in data set [1] turned out to be 10800 nM. On to `CC(=O)NC1=NN(C(C)=O)C(C)(c2ccccc2)S1` (centres undefined), for which, in [2], the IC50 was found to be 1300 nM. Compound `CON(C)C(=O)N1N=C(c2cc(F)ccc2F)S[C@@]1(CCCN)c1ccccc1` [FILANESIB] came in with an IC50 in data set [3] of 6 nM.

In the case of `CC1=C(C(=O)Nc2ccc(Cl)cc2)C(c2ccccc2)C2=C(CC(C)(C)CC2=O)N1` (centres undefined), in data set [1], the IC50 amounted to 100 nM.

For `CC(C)(O)[C@@H]1C[C@@H](O)[C@]2(C)[C@H](CC[C@@]3(C)[C@H]2CC[C@H]2Cc4c([nH]c5ccccc45)[C@@]23C)O1` [TERPENDOLE E], the IC50 in data set [4] and in data set [5] was 23000 nM each time. As for `O=C1[C@@H]2Cc3c([nH]c4ccccc34)[C@@H](c3cccc(O)c3)N2C(=O)N1Cc1ccccc1`, half-maximal inhibition in data set [3] (IC50) required 650 nM. For the compound `Cc1ccc(C(=O)N(CCCN)[C@@H](c2oc3cc(Cl)ccc3c(=O)c2Cc2ccccc2)C(C)C)cc1` [SB-743921], the MTD in the data set with Homo sapiens [6] came to 4 mg/m2. On to `CCC(c1nc2ccccc2n1Cc1ccccc1)N(CCCN(C)C)C(=O)c1ccc(Br)cc1` (centres undefined), for which the IC50 in [3] was determined as 40 nM. As to `NCCC(=O)N1CCc2cc3c(cc2C1c1cccc(O)c1)OCO3` (centres undefined), in data set [1], the IC50 turned out to be 20 nM. The Ratio IC50 in data set [7] was over 100. On the same counts, the results for `O=C(c1ccc(O)cc1)N1CCc2cc3c(cc2C1c1cccc(O)c1)OCO3` (centres undefined) are 40 nM and over 100. Take `CCOC(=O)C1=C(C)NC(=S)NC1c1cccc(O)c1` (centres undefined) [MONASTROL]: the IC50 in [3] worked out at 30000 nM. A word on the GI50: it is the concentration at which growth is held to half of that of the control. Higher therefore signals lower sensitivity of the cells. With `N[C@@H](CSC(c1ccccc1)(c1ccccc1)c1ccccc1)C(=O)O` [S-TRITYL-L-CYSTEINE], it took 1300 nM to inhibit growth in data set [8] by half (GI50). As usually defined, the half-life is how long it takes for the measured level to halve. Read a high half-life as slow decline. As for `Cc1ccc(C(=O)N(CCCN)C(c2nc3snc(C)c3c(=O)n2Cc2ccccc2)C(C)C)cc1` (single isomer, unassigned; (+)) [AZD-4877], the MTD with Homo sapiens [9] came to 30 mg; in the data set on Homo sapiens [10], 16 mg/day. The half-life at 672 h in data set [11] is 16 h. The half-life at 336 h in “clinical” was 17 h. For `CS(=O)(=O)O.Cc1ccc(C(=O)N(CCCN)[C@@H](c2nc3cc(Cl)ccc3c(=O)n2Cc2ccccc2)C(C)C)cc1` [ISPINESIB MESYLATE], the Activity in data set [12] came out at 9%. Also, the figures for the MTD in the data set with Homo sapiens [13] and with Homo sapiens [15] were 18 mg/m2 and 12 mg/m2, respectively. Moreover, the half-life in [14] is 33 h. For the compound `Cc1ccc(C(=O)N2CCc3cc4c(cc3C2c2cccc(O)c2)OCO4)cc1` (centres undefined), the IC50 in data set [1] worked out at 60 nM. Further, the Ratio IC50 in data set [7] was over 100. For `CC1(C)CCC[C@]2(C)O[C@H]3CC[C@@]4(C)[C@@H](CC[C@]5(C)[C@@H]4CC[C@]4(C)c6c(OS(=O)(=O)O)ccc(OS(=O)(=O)O)c6C[C@@H]54)[C@]3(C)CC[C@@H]12` [ADOCIASULFATE-2], the IC50 stood at 5300 nM in [16] and 3500 nM in data set [17]. `O=C1CCCC2=C1[C@H](c1cc(O)ccc1Br)NC(=S)N2`: in [18], it took 350 nM to reach half-maximal inhibition (IC50). On to `O=C1CCCC2=C1[C@H](c1cccc(O)c1)NC(=S)N2`, for which, in [7], the Ratio IC50 came out at 10.
